Experimental data reported in ChEMBL document CHEMBL4406902, “Structure-based analysis and biological characterization of imatinib derivatives reveal insights towards the inhibition of wild-type BCR-ABL and its mutants” (Bioorg Med Chem Lett, 2019).

Assays:
[1] = Inhibition of BCR/Abl P190 mutant (unknown origin) transfected in mouse Ba/F3 cells assessed as inhibition of cell proliferation measured after 72 hrs by CellTiter-Glo luminescent cell viability assay; type: cell-based; settings: BaF3, 72 h
[2] = Inhibition of BCR/Abl P230 mutant (unknown origin) transfected in mouse Ba/F3 cells assessed as inhibition of cell proliferation measured after 72 hrs by CellTiter-Glo luminescent cell viability assay; type: cell-based; settings: BaF3, 72 h

SMILES | IC50 [1] [nM] | IC50 [2] [nM]
Cc1ccc(NC(=O)c2ccc(CN3CCN(C)CC3)cc2)cc1Nc1nccc(-c2cccnc2)n1 [IMATINIB] | 346 | 222
Cc1cn(-c2cc(NC(=O)c3ccc(C)c(Nc4nccc(-c5cccnc5)n4)c3)cc(C(F)(F)F)c2)cn1 [NILOTINIB] | 23.2 | 19
Cc1ncc(NC(=O)c2ccc(CN3CCN(C)CC3)c(C(F)(F)F)c2)cc1Nc1nccc(-c2cccnc2)n1 [FLUMATINIB] | 13.3 | 10.3
